Test results reported in patent publication US12060439B2, “Polymorph of echinocandin antifungal agent” (Cidara Therapeutics, Inc., priority 2018, dated 2024).
Starred links: 1 amine or outer side, 2 acyl side, 3 side chain; linkers in the order of their positions; H or OH if unused. Positions of bridges follow the written chain, without caps; N, C: chain ends. Non-standard residues stand in square brackets, D forms with d. Residues, ends and D or L forms follow the SMILES beside them. *: point of attachment. Orn(4R-OH,5R-OCH2CH2NMe3+) = C[N+](C)(C)CCO[C@@H](N[*:3])[C@H](O)C[C@H](N[*:1])C(=O)[*:2]; pTerphenylCO(4''-OnC5H11) = CCCCCOc1ccc(-c2ccc(-c3ccc(C(=O)*)cc3)cc2)cc1; hTyr(3S-OH,4S-OH) = N[C@H](C(=O)O)[C@H](O)[C@@H](O)c1ccc(O)cc1; Pro(3S-OH,4S-Me) = C[C@H]1CN[C@H](C(=O)O)[C@H]1O; Hyp = O=C(O)[C@@H]1C[C@@H](O)CN1

Key:
Format in all cases: physicochemical
[1] = Dynamic vapour sorption experiment; conditions: for weight gain during the sorption isotherm: from 40-80% RH, 10% RH increments
Experimental: Further weight loss above 160° C. may correspond with the onset of decomposition. A dynamic vapour sorption experiment of Type B material was performed. The sample was subjected to a step profile from 40-90% RH at 10% increments, followed by desorption from 90-0% RH at 10% increments and then adsorption from 0-40% RH at 10% increments.
A dynamic vapour sorption experiment of Type E material was performed. The sample was subjected to a step profile from 40 to 90% RH at 10% increments, followed by desorption from 90 to 0% RH at 10% increments and then adsorption from 0 to 40% RH at 10% increments. […] There was a larger weight gain above 80% RH.

[2] = Solid form stability of polymorph on drying or storage, analysed by XRPD
Experimental: Compound 1 acetate Type E (1 g) was added to a beaker and dried in the vacuum oven at 40° C. overnight (not more than 18 hours). The solid was analyzed by XRPD analysis and shown to be Type B (FIG. 6).
Four samples of compound 1 acetate Type E were added to vials and placed in a desiccator, under vacuum, for up to 7 days.

[3] = Slurrying in EtOH at 40° C., form transformation by XRPD; conditions: after 3 days
[4] = Form stability as a function of ethanol activity (aEtOH)
Experimental: Compound 1 acetate and a solvent or solvent mixture were added to a vial and stirred at ambient temperature overnight to form a saturated suspension. Ethanol (EtOH) activity (aEtOH) of the solvent or solvent mixture was calculated using UNIFAC software. A further aliquot of the solvent or solvent mixture was added to the vial if the mixture was very thick. If all solids had dissolved, further amounts of compound 1 acetate were added and the mixture was stirred overnight. The slurry was then seeded with compound 1 acetate and compound 1 acetate-EtOH solvate and allowed to stir at ambient temperature for several days before isolation of solids and analysis by XRPD.
Compound 1 acetate Type E is a metastable solvate and converts to compound 1 acetate Type B on drying or storage at low ethanol activity (aEtOH<0.2). Type E was stable at an EtOH activity of >0.8.

[5] = Ambient conditions (44-63% RH, 20-25° C.) for 5 days
[6] = ambient temperature in the desiccator

| SMILES | weight gain during the sorption isotherm [1] | XRPD Result [2, 5] | form transformation to Type A (XRPD) [3] | weight loss during the equilibration hold ([1]; equilibration hold at 40% RH) | XRPD Result ([2]; Desiccator under vacuum at ambient conditions for 4 hours) | XRPD Result ([2]; Desiccator under vacuum at ambient conditions for 1 day) | XRPD Result ([2]; Desiccator under vacuum at ambient conditions for 5 days) | XRPD Result ([2]; Desiccator under vacuum at ambient conditions for 7 days) | time for which the form was stable [2, 6] | time to complete conversion to Type B [2, 6] | XRPD Result after drying ([2]; vacuum oven at 40° C. overnight (not more than 18 hours)) | EtOH activity at which the form was stable [4] | ethanol activity at which the form converts to Type B on storage ([4]; low ethanol activity) |
| --- | --- | --- | --- | --- | --- | --- | --- | --- | --- | --- | --- | --- | --- |
| CCCCCOc1ccc(-c2ccc(-c3ccc(C(=O)N[C@H]4C[C@@H](O)[C@@H](OCC[N+](C)(C)C)NC(=O)[C@@H]5[C@@H](O)[C@@H](C)CN5C(=O)[C@H]([C@@H](C)O)NC(=O)[C@H]([C@H](O)[C@@H](O)c5ccc(O)cc5)NC(=O)[C@@H]5C[C@@H](O)CN5C(=O)[C@H]([C@@H](C)O)NC4=O)cc3)cc2)cc1 [Type B] ({pTerphenylCO(4''-OnC5H11)}-[Orn(4R-OH,5R-OCH2CH2NMe3+)]T[Hyp][hTyr(3S-OH,4S-OH)]T[Pro(3S-OH,4S-Me)]; lactam 1-C) | 6% | Type B | no form transformation |  |  |  |  |  |  |  |  |  |  |
| CCCCCOc1ccc(-c2ccc(-c3ccc(C(=O)N[C@H]4C[C@@H](O)[C@@H](OCC[N+](C)(C)C)NC(=O)[C@@H]5[C@@H](O)[C@@H](C)CN5C(=O)[C@H]([C@@H](C)O)NC(=O)[C@H]([C@H](O)[C@@H](O)c5ccc(O)cc5)NC(=O)[C@@H]5C[C@@H](O)CN5C(=O)[C@H]([C@@H](C)O)NC4=O)cc3)cc2)cc1 [Type E] ({pTerphenylCO(4''-OnC5H11)}-[Orn(4R-OH,5R-OCH2CH2NMe3+)]T[Hyp][hTyr(3S-OH,4S-OH)]T[Pro(3S-OH,4S-Me)]; lactam 1-C) | 5% | Type B |  | ~18.5% | Type E | Type B + Type E | Type B | Type B | up to 4 hours | ≤ 5 days | Type B | > 0.8 | < 0.2 |
